# Assay results published in PMC7539967, “The Plasmodium falciparum eIK1 kinase (PfeIK1) is central for melatonin synchronization in the human malaria parasite. Melatotosil blocks melatonin action on parasite cell cycle” (Journal of Pineal Research, 2020).
# Columns and labels:
# [1] = tested on: Plasmodium falciparum 3D7; assay: Effect of indole compounds in parasitemia (48 h), 3D7; assay type: cell-based; settings: 3D7, 100 nM melatonin
# Description: Red blood cells infected (iRBC) with 3D7 or PfeIK1^‐ (iRBC) with 1% initial parasitemia and 2% hematocrit were incubated with 500 nM of the synthetic indole compounds or 100 nM Melatonin for 48 hours at 37°C under mixture of gases. ^12 The control group received 0.0013% of solvent dimethyl sulfoxide (DMSO).
# After 48 hours, iRBC were double‐stained ^34 with nucleic acid marker SYBR Green I (1X) and mitochondria marker, based on membrane potential, MitoTracker Deep Red (50 nM), and incubated for 20 minutes at 37°C.
# Final parasitemia was obtained by flow cytometer using an Accuri C6 flow cytometer (Becton Dickinson), collecting 10^4 cells. Parasitemia was determined by dot plots using FlowJo 5 software.
# [2] = tested on: pfeik1 gene expression in P. falciparum 3D7; assay: Quantitative real-time PCR of pfeik1 expression; assay type: cell-based, Plasmodium falciparum; settings: 100 nM melatonin, 4 h
# Description: For these experiments, P. falciparum 3D7 culture was synchronized with 5% sorbitol and parasites collected in the three stages: ring (14 hours); trophozoite (30 hours); and schizont (44 hours), at 4% parasitemia. Parasites were treated with 100 nM Melatonin or 0.00005% ethanol (control) and left for 4 hours before RNA extraction with Trizol (Invitrogen). RNA purified with ionic exchange columns with DNAse using RNAse‐free DNAse set (Qiagen) and RNeasy Mini Kit (Qiagen) and quantified in a UV‐Vis NanoDrop 2000c (Thermo Scientific). Three independent experiments were performed in triplicates.
# cDNA syntheses were performed using random primers and Superscript II reverse transcriptase (Invitrogen) according to the manufacturer’s protocol. SYBR Green (Applied Biosystems) was used in quantitative real‐time PCR on a 7300 Real‐Time PCR System (Applied Biosystems). Amplification was carried out as follow: on step 50°C for 2 min and 95°C for 10 min for enzyme activation followed by 40 cycles of 95°C for 0.15 min for denaturation and 60°C for 1 min for annealing/extension. The primers used were as follows: PF14_0423‐Fwd […] and PF14_0423‐Rvs […].
# Changes in relative expression were determined by 2^‐ΔΔCt or transforming the threshold cycle in absolute number of mRNA. […]
smiles,measurement,setting,value
"COc1ccc2[nH]cc(CCNC(C)=O)c2c1 [melatonin, N‐acetyl‐ 5‐methoxytryptamine]",increase in parasitemia,[1],approximately 10%
same,"parasitemia normalized to control, hormone only",[1],110%
same,decrease in pfeik1 expression compared to control,[2]; ring stage,40%
same,pfeik1 expression vs solvent,[2]; trophozoite and schizont stages,no significant difference
